Measurements as given in publication PMC3676484 (Journal of medicinal chemistry, 2013).

Columns and labels:
HIF-2α PAS-B domain = HIF-2α PAS-B domain (Homo sapiens, UniProt Q99814); assay: Isothermal titration calorimetry; format: binding; conditions: for weakening of binding relative to compound 32: ITC data, compared with 32
[1] = system: GST-HIF-2α PAS-B* and ARNT PAS-B*-FLAG domains (HIF-2α–ARNT heterodimerization); assay: AlphaScreen luminescence proximity assay of HIF-2α–ARNT PAS-B heterodimerization; conditions: for IC50: read-out: AlphaScreen IC50, disruption of HIF-2α PAS-B*–ARNT PAS-B* heterodimer; for AlphaScreen activity (in words): disruption of HIF-2α–ARNT heterodimerization
Solubility observation = format: physicochemical

HIF-2α PAS-B domain, sequence (Q99814 240-350 limits assumed): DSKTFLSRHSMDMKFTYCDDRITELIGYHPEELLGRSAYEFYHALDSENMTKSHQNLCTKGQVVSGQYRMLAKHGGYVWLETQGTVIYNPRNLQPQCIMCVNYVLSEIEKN

O=[N+]([O-])c1c(Nc2cccc(Cl)c2)ccc2nonc12 [Compound 19]
weakening of binding relative to compound 32 (HIF-2α PAS-B domain): two fold reduction in affinity

COc1cccc(Nc2ccc3nonc3c2[N+](=O)[O-])c1 [Compound 16]
IC50 [1]: > 30 µM

Fc1cc(Cl)cc(Nc2ccc3nonc3c2)c1 [Compound 46]
AlphaScreen activity (in words) [1]: weak activity
solubility (in words) (Solubility observation): relatively insoluble

O=[N+]([O-])c1c(Nc2ccc(F)cc2)ccc2nonc12 [Compound 17]
IC50 [1]: > 30 µM

Nc1c(Nc2cc(F)cc(Cl)c2)ccc2nonc12 [Compound 47]
AlphaScreen activity (in words) [1]: weak activity
solubility (in words) (Solubility observation): relatively insoluble
worsening of binding and disruption relative to compound 32 (HIF-2α PAS-B domain; binding and disruption, NO2 replaced by NH2, compared with 32): 30–60 fold

O=C1C=CC(=O)N1c1c(Nc2cc(F)cc(Cl)c2)ccc2nonc12 [Compound 50]
IC50 [1]: > 30 µM

O=C(CCl)Nc1c(Nc2cc(F)cc(Cl)c2)ccc2nonc12 [Compound 49]
IC50 [1]: > 30 µM

O=[N+]([O-])c1c(Nc2ccc(Cl)cc2)ccc2nonc12 [Compound 18]
IC50 [1]: > 30 µM

CN(C)S(=O)(=O)c1c(Nc2cc(F)cc(Cl)c2)ccc2nonc12 [Compound 55]
AlphaScreen activity (in words) [1]: inactive as disruptors

CC(=O)Nc1c(Nc2cc(F)cc(Cl)c2)ccc2nonc12 [Compound 48]
IC50 [1]: > 30 µM

O=[N+]([O-])c1c(Nc2ccc(C(F)(F)F)cc2Cl)ccc2nonc12 [Compound 24]
IC50 [1]: > 30 µM

O=[N+]([O-])c1c(Nc2cc(F)cc(F)c2)ccc2nonc12 [Compound 30]
weakening of binding relative to compound 32 (HIF-2α PAS-B domain): 8 fold

CNS(=O)(=O)c1c(Nc2cc(F)cc(Cl)c2)ccc2nonc12 [Compound 54]
AlphaScreen activity (in words) [1]: inactive as disruptors
IC50 [1]: > 30 µM

O=[N+]([O-])c1c(NCc2c(F)cccc2Cl)ccc2nonc12 [Compound 7]
IC50 [1]: > 30 µM

Cc1ccc(CNc2ccc3nonc3c2[N+](=O)[O-])cc1 [Compound 4]
IC50 [1]: > 30 µM

O=[N+]([O-])c1c(NCc2cc(F)ccc2C(F)(F)F)ccc2nonc12 [Compound 11]
IC50 [1]: > 30 µM

O=[N+]([O-])c1c(Nc2ccc(Br)cc2)ccc2nonc12 [Compound 20]
IC50 [1]: > 30 µM

O=[N+]([O-])c1c(Nc2cccc(F)c2)ccc2nonc12 [Compound 23]
weakening of binding relative to compound 32 (HIF-2α PAS-B domain): 25 fold
